Measured values as given in patent US20200264182A1, “METHOD FOR DETECTING PROSTATE CANCER” (J-OIL MILLS, INC., priority 2017, published 2020).
Where no end group is shown, it is not given here.

Tested on: serum fucosylated PSA
Experiment: Sandwich ELISA, anti-PSA antibody and biotin-labeled lectin
Assay type: binding, human
Conditions: for Δ (=A − B): reaction value of Prostate cancer 4 minus Healthy 1; for lectin reaction value B of Healthy 1: serum of Healthy 1; for lectin reaction value A of Prostate cancer 4: serum of Prostate cancer 4, GS 6 (3 + 3)
How it was run: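 De-glycosylated anti-PSA antibody (5 μg/mL) captured PSA from 2-fold diluted serum, detected with biotin-PhoSL (0.1 μg/mL, 4° C, 30 min) in 0.1% BSA/diluted PBS+glycine-NaOH pH 9.6 or PBS pH 7.4, then HRP-streptavidin/TMB at Ab450-630. Values in U/mL from fucosylated PSA calibration, 10 ng/mL defined as 10 U/mL; AAL substituted for comparison.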

[1] = subject samples A, 7 healthy persons, pH 9.6
[2] = subject samples A, 9 patients, pH 9.6
[3] = subject samples B, n 9, high blood PSA but no cancer in biopsy, pH 9.6
[4] = subject samples B, n 11, pH 9.6

PhoSL: fucose α1→6 specific lectin that can be extracted from Pholiota squarrosa, SEQ ID No. 1 (APVPVTKLVCDGDTYKCTAYLDFGDGRWVAQWDTNVFHTG; not fully specified; ends and bridges not checked)
Δ (=A − B) (pH in lectin reaction 7.4): 72.6 U/mL | Δ (=A − B) (pH in lectin reaction 9.6): 126.9 U/mL | lectin reaction value B of Healthy 1 (pH in lectin reaction 7.4): 35.8 U/mL | lectin reaction value B of Healthy 1 (pH in lectin reaction 9.6): 51.9 U/mL | lectin reaction value of Healthy 2 (serum of Healthy 2, pH in lectin reaction 9.6): 55.9 U/mL | lectin reaction value of Healthy 3 (serum of Healthy 3, pH in lectin reaction 9.6): 63.9 U/mL | lectin reaction value of Healthy 4 (serum of Healthy 4, pH in lectin reaction 9.6): 74.9 U/mL | lectin reaction value of Healthy 5 (serum of Healthy 5, pH in lectin reaction 9.6): 55.8 U/mL | lectin reaction value of Healthy 6 (serum of Healthy 6, pH in lectin reaction 9.6): 39.7 U/mL | lectin reaction value of Healthy 7 (serum of Healthy 7, pH in lectin reaction 9.6): 59.0 U/mL | lectin reaction value of Prostate cancer 1 (serum of Prostate cancer 1, GS 4 (2 + 2), pH in lectin reaction 9.6): 115.8 U/mL | lectin reaction value of Prostate cancer 2 (serum of Prostate cancer 2, GS 5 (2 + 3), pH in lectin reaction 9.6): 116.7 U/mL | lectin reaction value of Prostate cancer 3 (serum of Prostate cancer 3, GS 6 (3 + 3), pH in lectin reaction 9.6): 104.5 U/mL | lectin reaction value A of Prostate cancer 4 (pH in lectin reaction 7.4): 108.4 U/mL | lectin reaction value A of Prostate cancer 4 (pH in lectin reaction 9.6): 178.8 U/mL | lectin reaction value of Prostate cancer 5 (serum of Prostate cancer 5, GS 7 (3 + 4), pH in lectin reaction 9.6): 115.8 U/mL | lectin reaction value of Prostate cancer 6 (serum of Prostate cancer 6, GS 7 (3 + 4), pH in lectin reaction 9.6): 167.5 U/mL | lectin reaction value of Prostate cancer 7 (serum of Prostate cancer 7, GS 8 (3 + 5), pH in lectin reaction 9.6): 125.6 U/mL | lectin reaction value of Prostate cancer 8 (serum of Prostate cancer 8, GS 8 (4 + 4), pH in lectin reaction 9.6): 129.8 U/mL | lectin reaction value of Prostate cancer 9 (serum of Prostate cancer 9, GS 8 (4 + 4), pH in lectin reaction 9.6): 251.4 U/mL | reaction value, Healthy person group, Average value [1]: 57.3 U/mL | reaction value, Healthy person group, Median value [1]: 55.9 U/mL | reaction value, Prostate cancer patient group, Average value [2]: 145.1 U/mL | reaction value, Prostate cancer patient group, Median value [2]: 125.6 U/mL | reaction value, GS6, Mean value (subject samples A, n 2, pH 9.6): 141.7 U/mL | reaction value, GS6, Median value (subject samples A, n 2, pH 9.6): 141.7 U/mL | reaction value, GS7, Mean value (subject samples A, n 2, pH 9.6): 141.7 U/mL | reaction value, GS7, Median value (subject samples A, n 2, pH 9.6): 141.7 U/mL | reaction value, Negative (GS5 or less), Mean value (subject samples A, n 2, pH 9.6): 116.3 U/mL | reaction value, Negative (GS5 or less), Median value (subject samples A, n 2, pH 9.6): 116.3 U/mL | reaction value, GS8 or more, Mean value (subject samples A, n 3, pH 9.6): 129.8 U/mL | reaction value, GS8 or more, Median value (subject samples A, n 3, pH 9.6): 168.9 U/mL | reaction value, GS8-9, Mean value (subject samples B, n 6, pH 9.6): 232.9 U/mL | reaction value, GS8-9, Median value (subject samples B, n 6, pH 9.6): 239.8 U/mL | reaction value, Negative, Mean value [3]: 203.8 U/mL | reaction value, Negative, Median value [3]: 178.0 U/mL | reaction value, GS6, Mean value (subject samples B, n 9, pH 9.6): 181.7 U/mL | reaction value, GS6, Median value (subject samples B, n 9, pH 9.6): 188.9 U/mL | reaction value, GS7, Mean value [4]: 119.5 U/mL | reaction value, GS7, Median value [4]: 210.6 U/mL
